In US20230183292A1, “IMMUNOMODULATORS” (priority 2020, published 2023):
Starred links: 1 amine or outer side, 2 acyl side, 3 side chain; linkers in the order of their positions; H or OH if unused. Positions of bridges follow the written chain, without caps; N, C: chain ends. Non-standard residues stand in square brackets, D forms with d. Residues, ends and D or L forms follow the SMILES beside them. Groups on a side chain read outwards from the residue. *: point of attachment. X15 = C[C@H](CCC(=O)NCCCCNc1c(*)c(=O)c1=O)[C@H]1CC[C@H]2[C@@H]3[C@H](O)C[C@@H]4C[C@H](O)CC[C@]4(C)[C@H]3C[C@H](O)[C@]12C; Chenodeoxycholyl = C[C@H](CCC(=O)*)[C@H]1CC[C@H]2[C@@H]3[C@H](O)C[C@@H]4C[C@H](O)CC[C@]4(C)[C@H]3CC[C@]12C; Ursodeoxycholyl = C[C@H](CCC(=O)*)[C@H]1CC[C@H]2[C@@H]3[C@@H](O)C[C@@H]4C[C@H](O)CC[C@]4(C)[C@H]3CC[C@]12C; Cholyl = C[C@H](CCC(=O)*)[C@H]1CC[C@H]2[C@@H]3[C@H](O)C[C@@H]4C[C@H](O)CC[C@]4(C)[C@H]3C[C@H](O)[C@]12C; Deoxycholoyl = C[C@H](CCC(=O)*)[C@H]1CC[C@H]2[C@@H]3CC[C@@H]4C[C@H](O)CC[C@]4(C)[C@H]3C[C@H](O)[C@]12C; X16 = C[C@H](CCC(=O)*)[C@H]1CC[C@H]2[C@@H]3CC(=O)[C@@H]4CC(=O)CC[C@]4(C)[C@H]3CC[C@]12C; Trp(1-CH2CO2Me) = COC(=O)Cn1cc(C[C@H](N)C(=O)O)c2ccccc21; X29 = CN(C)C(=O)Cn1cc(C[C@H](N[*:1])C(=O)[*:2])c2ccccc21; Trp(1-CH2COOH) = N[C@@H](Cc1cn(CC(=O)O)c2ccccc12)C(=O)O; X1 = NCCNC(=O)Cn1cc(C[C@H](N[*:1])C(=O)[*:2])c2ccccc21; X31 = CCOC(=O)Cn1cc(C[C@H](N[*:1])C(=O)[*:2])c2ccccc21; Pro(4R-Me) = C[C@H]1CN[C@H](C(=O)O)C1; Hyp = O=C(O)[C@@H]1C[C@@H](O)CN1; NMeNle = CCCC[C@H](NC)C(=O)O; NMeA = CN[C@@H](C)C(=O)O; Dab = NCC[C@H](N)C(=O)O; Dap = NC[C@H](N)C(=O)O

Target: T1, PD-1/PD-L1 (Homo sapiens, UniProt Q9NZQ7)
T1 construct: TVMV protease site (C); made in house; host or cells: HEK293T cells
T1 sequence (Q9NZQ7 18-239): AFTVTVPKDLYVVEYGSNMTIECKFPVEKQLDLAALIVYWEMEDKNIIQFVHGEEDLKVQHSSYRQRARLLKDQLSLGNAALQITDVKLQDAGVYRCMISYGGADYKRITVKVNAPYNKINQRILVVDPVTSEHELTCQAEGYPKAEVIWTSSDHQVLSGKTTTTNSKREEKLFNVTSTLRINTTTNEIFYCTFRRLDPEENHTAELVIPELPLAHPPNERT
Test: PD-1/PD-L1 Homogenous Time-Resolved Fluorescence (HTRF) binding assay
Details: PD-L1-His 10 nM, PD-1-Ig 20 nM; read-out: HTRF IC50
From the text: The ability of the compounds of formula (I) to bind to PD-L1 was investigated using a PD-1/PD-L1 Homogenous Time-Resolved Fluorescence (HTRF) binding assay.
The interaction of PD-1 and PD-L1 can be assessed using soluble, purified preparations of the extracellular domains of the two proteins. The PD-1 and PD-L1 protein extracellular domains were expressed as fusion proteins with detection tags, for PD-1, the tag was the Fc portion of Immunoglobulin (PD-1-Ig) and for PD-L1 it was the 6 histidine motif (PD-L1-His). All binding studies were performed in an HTRF assay buffer consisting of dPBS supplemented with 0.1% […] bovine serum albumin and 0.05% (v/v) Tween-20. For the h/PD-L1-His binding assay, inhibitors were pre-incubated with PD-L1-His (10 nM final) for 15 m in 4 μl of assay buffer, followed by addition of PD-1-Ig (20 nM final) in 1 μl of assay buffer and further incubation for 15 m. HTRF detection was achieved using europium crypate-labeled anti-Ig (1 nM final) and allophycocyanin (APC) labeled anti-His (20 nM final). Antibodies were diluted in HTRF detection buffer and 5 μl was dispensed on top of the binding reaction. The reaction mixture was allowed to equilibrate for 30 minutes and the resulting signal (665 nm/620 nm ratio) was obtained using an EnVision fluorometer. Additional binding assays were established between the human proteins PD-1-Ig/PD-L2-His (20 & 5 nM, respectively) and CD80-His/PD-L1-Ig (100 & 10 nM, respectively).
Recombinant Proteins: Human PD-1 (25-167) with a C-terminal human Fc domain of immunoglobulin G (Ig) epitope tag [hPD-1 (25-167)-3S-IG] and human PD-L1 (18-239) with a C-terminal His epitope tag [hPD-L1(18-239)-TVMV-His] were expressed in HEK293T cells and purified sequentially by ProteinA affinity chromatography and size exclusion chromatography. Human PD-L2-His and CD80-His was obtained through commercial sources.
Table 1 lists the IC50 values for representative examples of this disclosure measured in the PD-1/PD-L1 Homogenous Time-Resolved Fluorescence (HTRF) binding assay.

Row | SMILES | IC50 [nM]
1 | CCCC[C@H]1C(=O)N(C)[C@@H](CCCC)C(=O)N[C@@H](CC(C)C)C(=O)N[C@H](C(=O)NCC(N)=O)CSCC(=O)N[C@@H](Cc2ccc(O)cc2)C(=O)N(C)[C@@H](C)C(=O)N[C@@H](CC(N)=O)C(=O)N2CCC[C@H]2C(=O)N[C@@H](CNC(=O)CC[C@@H](C)[C@H]2CC[C@H]3[C@@H]4[C@H](O)C[C@@H]5C[C@H](O)CC[C@]5(C)[C@H]4CC[C@]23C)C(=O)N[C@@H](CC(C)C)C(=O)N2C[C@H](O)C[C@H]2C(=O)N[C@@H](Cc2c[nH]c3ccccc23)C(=O)N[C@@H](CCNC(=O)CC[C@@H](C)[C@H]2CC[C@H]3[C@@H]4[C@H](O)C[C@@H]5C[C@H](O)CC[C@]5(C)[C@H]4CC[C@]23C)C(=O)N[C@@H](Cc2cn(CC(=O)OCC)c3ccccc23)C(=O)N1C [Example 2001] ({CH2CO}-Y[NMeA]NP[Dap](Chenodeoxycholyl)L[Hyp]W[Dab](Chenodeoxycholyl)[X31][NMeNle][NMeNle]LCG-NH2; thioether N-14) | 220
2 | CCCC[C@H]1C(=O)N(C)[C@@H](CCCC)C(=O)N[C@@H](CC(C)C)C(=O)N[C@H](C(=O)NCC(N)=O)CSCC(=O)N[C@@H](Cc2ccc(O)cc2)C(=O)N(C)[C@@H](C)C(=O)N[C@@H](CC(N)=O)C(=O)N2CCC[C@H]2C(=O)N[C@@H](CNc2c(NCCCCNC(=O)CC[C@@H](C)[C@H]3CC[C@H]4[C@@H]5[C@H](O)C[C@@H]6C[C@H](O)CC[C@]6(C)[C@H]5C[C@H](O)[C@]34C)c(=O)c2=O)C(=O)N[C@@H](CC(C)C)C(=O)N2C[C@H](O)C[C@H]2C(=O)N[C@@H](Cc2c[nH]c3ccccc23)C(=O)N[C@@H](CCNc2c(NCCCCNC(=O)CC[C@@H](C)[C@H]3CC[C@H]4[C@@H]5[C@H](O)C[C@@H]6C[C@H](O)CC[C@]6(C)[C@H]5C[C@H](O)[C@]34C)c(=O)c2=O)C(=O)N[C@@H](Cc2cn(CC(=O)O)c3ccccc23)C(=O)N1C [Example 5001] ({CH2CO}-Y[NMeA]NP[Dap](X15)L[Hyp]W[Dab](X15)[Trp(1-CH2COOH)][NMeNle][NMeNle]LCG-NH2; thioether N-14; N-terminus assumed) | 0.7
3 | CCCC[C@H]1C(=O)N(C)[C@@H](CCCC)C(=O)N[C@@H](CC(C)C)C(=O)N[C@H](C(=O)NCC(N)=O)CSCC(=O)N[C@@H](Cc2ccc(O)cc2)C(=O)N(C)[C@@H](C)C(=O)N[C@@H](CC(N)=O)C(=O)N2CCC[C@H]2C(=O)N[C@@H](CNC(=O)CC[C@@H](C)[C@H]2CC[C@H]3[C@@H]4[C@@H](O)C[C@@H]5C[C@H](O)CC[C@]5(C)[C@H]4CC[C@]23C)C(=O)N[C@@H](CC(C)C)C(=O)N2C[C@H](C)C[C@H]2C(=O)N[C@@H](Cc2c[nH]c3ccccc23)C(=O)N[C@@H](CCNC(=O)CC[C@@H](C)[C@H]2CC[C@H]3[C@@H]4[C@@H](O)C[C@@H]5C[C@H](O)CC[C@]5(C)[C@H]4CC[C@]23C)C(=O)N[C@@H](Cc2cn(CC(=O)NCCN)c3ccccc23)C(=O)N1C [Example 2032] ({CH2CO}-Y[NMeA]NP[Dap](Ursodeoxycholyl)L[Pro(4R-Me)]W[Dab](Ursodeoxycholyl)[X1][NMeNle][NMeNle]LCG-NH2; thioether N-14) | 460
4 | CCCC[C@H]1C(=O)N(C)[C@@H](CCCC)C(=O)N[C@@H](CC(C)C)C(=O)N[C@H](C(=O)NCC(N)=O)CSCC(=O)N[C@@H](Cc2ccc(O)cc2)C(=O)N(C)[C@@H](C)C(=O)N[C@@H](CC(N)=O)C(=O)N2CCC[C@H]2C(=O)N[C@@H](CNC(=O)CC[C@@H](C)[C@H]2CC[C@H]3[C@@H]4[C@H](O)C[C@@H]5C[C@H](O)CC[C@]5(C)[C@H]4C[C@H](O)[C@]23C)C(=O)N[C@@H](CC(C)C)C(=O)N2C[C@H](O)C[C@H]2C(=O)N[C@@H](Cc2c[nH]c3ccccc23)C(=O)N[C@@H](CCN)C(=O)N[C@@H](Cc2cn(CC(=O)OC)c3ccccc23)C(=O)N1C [Example 1011] ({CH2CO}-Y[NMeA]NP[Dap](Cholyl)L[Hyp]W[Dab][Trp(1-CH2CO2Me)][NMeNle][NMeNle]LCG-NH2; thioether N-14) | 6.3
5 | CCCC[C@H]1C(=O)N(C)[C@@H](CCCC)C(=O)N[C@@H](CC(C)C)C(=O)N[C@H](C(=O)NCC(N)=O)CSCC(=O)N[C@@H](Cc2ccc(O)cc2)C(=O)N(C)[C@@H](C)C(=O)N[C@@H](CC(N)=O)C(=O)N2CCC[C@H]2C(=O)N[C@@H](CNC(=O)CC[C@@H](C)[C@H]2CC[C@H]3[C@@H]4[C@H](O)C[C@@H]5C[C@H](O)CC[C@]5(C)[C@H]4C[C@H](O)[C@]23C)C(=O)N[C@@H](CC(C)C)C(=O)N2C[C@H](O)C[C@H]2C(=O)N[C@@H](Cc2c[nH]c3ccccc23)C(=O)N[C@@H](CCNC(=O)CC[C@@H](C)[C@H]2CC[C@H]3[C@@H]4[C@H](O)C[C@@H]5C[C@H](O)CC[C@]5(C)[C@H]4C[C@H](O)[C@]23C)C(=O)N[C@@H](Cc2cn(CC(=O)NCCN)c3ccccc23)C(=O)N1C [Example 2021] ({CH2CO}-Y[NMeA]NP[Dap](Cholyl)L[Hyp]W[Dab](Cholyl)[X1][NMeNle][NMeNle]LCG-NH2; thioether N-14) | 180
6 | CCCC[C@H]1C(=O)N(C)[C@@H](CCCC)C(=O)N[C@@H](CC(C)C)C(=O)N[C@H](C(=O)NCC(N)=O)CSCC(=O)N[C@@H](Cc2ccc(O)cc2)C(=O)N(C)[C@@H](C)C(=O)N[C@@H](CC(N)=O)C(=O)N2CCC[C@H]2C(=O)N[C@@H](CNC(=O)CNC(=O)CC[C@@H](C)[C@H]2CC[C@H]3[C@@H]4[C@H](O)C[C@@H]5C[C@H](O)CC[C@]5(C)[C@H]4C[C@H](O)[C@]23C)C(=O)N[C@@H](CC(C)C)C(=O)N2C[C@H](O)C[C@H]2C(=O)N[C@@H](Cc2c[nH]c3ccccc23)C(=O)N[C@@H](CCN)C(=O)N[C@@H](Cc2cn(CC(=O)N(C)C)c3ccccc23)C(=O)N1C [Example 1008] ({CH2CO}-Y[NMeA]NP[Dap]([Gly-Cholyl])L[Hyp]W[Dab][X29][NMeNle][NMeNle]LCG-NH2; thioether N-14) | 14
7 | CCCC[C@H]1C(=O)N(C)[C@@H](CCCC)C(=O)N[C@@H](CC(C)C)C(=O)N[C@H](C(=O)NCC(N)=O)CSCC(=O)N[C@@H](Cc2ccc(O)cc2)C(=O)N(C)[C@@H](C)C(=O)N[C@@H](CC(N)=O)C(=O)N2CCC[C@H]2C(=O)N[C@@H](CNC(=O)CC[C@@H](C)[C@H]2CC[C@H]3[C@@H]4CC(=O)[C@@H]5CC(=O)CC[C@]5(C)[C@H]4CC[C@]23C)C(=O)N[C@@H](CC(C)C)C(=O)N2C[C@H](O)C[C@H]2C(=O)N[C@@H](Cc2c[nH]c3ccccc23)C(=O)N[C@@H](CCNC(=O)CC[C@@H](C)[C@H]2CC[C@H]3[C@@H]4CC(=O)[C@@H]5CC(=O)CC[C@]5(C)[C@H]4CC[C@]23C)C(=O)N[C@@H](Cc2cn(CC(=O)O)c3ccccc23)C(=O)N1C [Example 1019] ({CH2CO}-Y[NMeA]NP[Dap](X16)L[Hyp]W[Dab](X16)[Trp(1-CH2COOH)][NMeNle][NMeNle]LCG-NH2; thioether N-14) | 13
8 | CCCC[C@H]1C(=O)N(C)[C@@H](CCCC)C(=O)N[C@@H](CC(C)C)C(=O)N[C@H](C(=O)NCC(N)=O)CSCC(=O)N[C@@H](Cc2ccc(O)cc2)C(=O)N(C)[C@@H](C)C(=O)N[C@@H](CC(N)=O)C(=O)N2CCC[C@H]2C(=O)N[C@@H](CNC(=O)CC[C@@H](C)[C@H]2CC[C@H]3[C@@H]4CC[C@@H]5C[C@H](O)CC[C@]5(C)[C@H]4C[C@H](O)[C@]23C)C(=O)N[C@@H](CC(C)C)C(=O)N2C[C@H](O)C[C@H]2C(=O)N[C@@H](Cc2c[nH]c3ccccc23)C(=O)N[C@@H](CCNC(=O)CC[C@@H](C)[C@H]2CC[C@H]3[C@@H]4[C@H](O)C[C@@H]5C[C@H](O)CC[C@]5(C)[C@H]4CC[C@]23C)C(=O)N[C@@H](Cc2cn(CC(=O)OC)c3ccccc23)C(=O)N1C [Example 1001] ({CH2CO}-Y[NMeA]NP[Dap](Deoxycholoyl)L[Hyp]W[Dab](Chenodeoxycholyl)[Trp(1-CH2CO2Me)][NMeNle][NMeNle]LCG-NH2; thioether N-14) | 9.5
